Laboratory results published in ChEMBL document CHEMBL1909046, “DrugMatrix in vitro pharmacology data”.

What was measured:
[1] = molecular target: T1, 5-hydroxytryptamine receptor 1A (Rattus norvegicus, UniProt P19327); type: cell membranes, CHO-K1, Membrane; note: in other assays of this panel Not Active means under 50% inhibition at 10 µM
T1 sequence (P19327 whole entry): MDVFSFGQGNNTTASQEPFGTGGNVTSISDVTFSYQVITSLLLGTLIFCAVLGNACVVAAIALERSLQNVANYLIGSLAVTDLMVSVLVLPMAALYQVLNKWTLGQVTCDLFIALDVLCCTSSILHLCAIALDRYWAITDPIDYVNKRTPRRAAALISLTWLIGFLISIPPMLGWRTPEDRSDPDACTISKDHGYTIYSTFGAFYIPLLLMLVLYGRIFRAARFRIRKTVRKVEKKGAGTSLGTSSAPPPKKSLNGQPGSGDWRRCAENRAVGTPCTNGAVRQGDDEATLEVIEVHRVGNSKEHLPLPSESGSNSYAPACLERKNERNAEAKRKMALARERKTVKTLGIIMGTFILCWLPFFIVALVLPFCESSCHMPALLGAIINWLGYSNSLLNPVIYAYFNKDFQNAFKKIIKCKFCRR

B2 bradykinin receptor = molecular target: T2, B2 bradykinin receptor (Homo sapiens, UniProt P30411); type: cell membranes, Membrane; conditions: chem-1; note: in other assays of this panel Not Active means under 50% inhibition at 10 µM
T2 sequence (P30411 whole entry): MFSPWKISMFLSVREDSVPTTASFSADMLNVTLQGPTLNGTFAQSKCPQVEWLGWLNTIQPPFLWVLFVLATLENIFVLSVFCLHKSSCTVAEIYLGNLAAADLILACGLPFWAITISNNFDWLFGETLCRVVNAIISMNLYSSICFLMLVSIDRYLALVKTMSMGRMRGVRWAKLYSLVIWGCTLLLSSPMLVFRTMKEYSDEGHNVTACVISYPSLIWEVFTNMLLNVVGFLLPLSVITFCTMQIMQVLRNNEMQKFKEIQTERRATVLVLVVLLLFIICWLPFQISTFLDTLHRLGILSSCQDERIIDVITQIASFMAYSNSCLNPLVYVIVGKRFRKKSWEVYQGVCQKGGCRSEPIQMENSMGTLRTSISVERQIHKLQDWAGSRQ

[2] = DRUGMATRIX: Calcium Channel Type L, Phenylalkylamine radioligand binding (ligand: [3H] (-)-Desmethoxyverapamil (D-888)); type: cell membranes, Rattus norvegicus, Wistar, Brain, Membrane; conditions: Not Active = under 50% inhibition at 10 µM
[3] = DRUGMATRIX: Glutamate, AMPA radioligand binding (ligand: [3H] AMPA); type: cell membranes, Rattus norvegicus, Wistar, Cerebral cortex, Membrane; conditions: Not Active = under 50% inhibition at 10 µM
[4] = DRUGMATRIX: Leukotriene, BLT (LTB4) radioligand binding (ligand: [3H]LTB4); type: cell membranes, Membrane; conditions: u-937; Not Active = under 50% inhibition at 10 µM
[5] = DRUGMATRIX: Phosphodiesterase PDE3 enzyme inhibition (substrate: [3H]cAMP + cAMP); type: tissue-based, Homo sapiens; conditions: platelet; Not Active = under 50% inhibition at 10 µM
[6] = DRUGMATRIX: beta-Lactamase enzyme inhibition (substrate: Nitrocefin); parameters: species or system Bacillus cereus; conditions: Not Active = under 50% inhibition at 10 µM

Molecule	IC50 ([1]; cho-k1)	IC50 (B2 bradykinin receptor)	IC50 [2]	Ki [2]	IC50 [3]	Ki [3]	IC50 [4]	Ki [4]	IC50 [5]	Ki [5]	IC50 [6]	Ki [6]	IC50 ([2]; read-out: IC50) [µM]	Ki ([2]; read-out: Ki) [µM]	Ki ([1]; cho-k1)	Ki (B2 bradykinin receptor)	IC50 ([1]; read-out: IC50) [µM]	Ki ([1]; read-out: Ki) [µM]
CC(=O)[C@H]1[C@H](C#N)C[C@H]2[C@@H]3CC=C4C[C@@H](O)CC[C@]4(C)[C@H]3CC[C@@]21C [PREGNENOLONE CARBONITRILE]	Not Active	Not Active	Not Active	Not Active	Not Active	Not Active	Not Active	Not Active	Not Active	Not Active	Not Active	Not Active						
CN(C)CC[C@@H](c1ccc(Cl)cc1)c1ccccn1 [DEXCHLORPHENIRAMINE]	Not Active	Not Active			Not Active	Not Active	Not Active	Not Active	Not Active	Not Active	Not Active	Not Active	3.81	3.7				
CC[C@H](C)[C@H]1O[C@]2(C=C[C@@H]1C)C[C@@H]1C[C@@H](C/C=C(\C)[C@@H](O[C@H]3C[C@H](OC)[C@@H](O[C@H]4C[C@H](OC)[C@@H](O)[C@H](C)O4)[C@H](C)O3)[C@@H](C)/C=C/C=C3\CO[C@@H]4[C@H](O)C(C)=C[C@@H](C(=O)O1)[C@]34O)O2.CO[C@H]1C[C@H](O[C@H]2[C@H](C)O[C@@H](O[C@@H]3/C(C)=C/C[C@@H]4C[C@@H](C[C@]5(C=C[C@H](C)[C@@H](C(C)C)O5)O4)OC(=O)[C@@H]4C=C(C)[C@@H](O)[C@H]5OC/C(=C\C=C\[C@@H]3C)[C@]54O)C[C@@H]2OC)O[C@@H](C)[C@@H]1O [ABAMECTIN]	Not Active	Not Active	Not Active	Not Active	Not Active	Not Active	Not Active	Not Active	Not Active	Not Active	Not Active	Not Active						
C[C@@H]1O[C@@H](O[C@@H]2C=C3CC[C@@H]4[C@H](CC[C@]5(C)[C@@H](c6ccc(=O)oc6)CC[C@]45O)[C@@]3(C)CC2)[C@H](O)[C@H](O)[C@H]1O [PROSCILLARIDIN]	Not Active	Not Active	Not Active	Not Active	Not Active	Not Active	Not Active	Not Active	Not Active	Not Active	Not Active	Not Active						
CN(C)[C@@H]1C(O)=C(C(N)=O)C(=O)[C@@]2(O)C(O)=C3C(=O)c4c(O)ccc(Cl)c4[C@@](C)(O)[C@H]3C[C@@H]12 [CHLORTETRACYCLINE]	Not Active	Not Active	Not Active	Not Active	Not Active	Not Active	Not Active	Not Active	Not Active	Not Active	Not Active	Not Active						
Nc1ccn([C@@H]2O[C@H](CO)[C@@H](O)[C@@H]2O)c(=O)n1 [CYTARABINE]	Not Active	Not Active	Not Active	Not Active	Not Active	Not Active	Not Active	Not Active	Not Active	Not Active	Not Active	Not Active						
CC(C)c1cccc(C(C)C)c1O [PROPOFOL]	Not Active	Not Active	Not Active	Not Active	Not Active	Not Active	Not Active	Not Active	Not Active	Not Active	Not Active	Not Active						
NYSTATIN	Not Active	Not Active	Not Active	Not Active	Not Active	Not Active	Not Active	Not Active	Not Active	Not Active	Not Active	Not Active			Not Active	Not Active		
Cc1cc2c(OCC(CNC(C)(C)C)OC(=O)c3ccccc3)cccc2[nH]1 (stereo unspecified) [BOPINDOLOL]		Not Active			Not Active	Not Active	Not Active	Not Active	Not Active	Not Active	Not Active	Not Active	2.9	2.82			0.267	0.153
CC(=O)Oc1ccc(C(c2ccc(OC(C)=O)cc2)c2ccccn2)cc1 [BISACODYL]	Not Active	Not Active	Not Active	Not Active	Not Active	Not Active	Not Active	Not Active	Not Active	Not Active	Not Active	Not Active						
C[C@@H](CO)NC(=O)[C@@H]1C=C2c3cccc4[nH]cc(c34)C[C@H]2N(C)C1 [ERGONOVINE]		Not Active	Not Active	Not Active	Not Active	Not Active	Not Active	Not Active	Not Active	Not Active	Not Active	Not Active					0.00813	0.00464
CC(=O)O[C@H]1C(=O)[C@@]2(C)[C@H]([C@H](OC(=O)c3ccccc3)[C@]3(O)C[C@H](OC(=O)[C@H](O)[C@@H](NC(=O)c4ccccc4)c4ccccc4)C(C)=C1C3(C)C)[C@]1(OC(C)=O)CO[C@@H]1C[C@@H]2O [PACLITAXEL]	Not Active	Not Active	Not Active	Not Active	Not Active	Not Active	Not Active	Not Active	Not Active	Not Active	Not Active	Not Active						
Nc1ccn([C@@H]2O[C@H](CO)[C@@H](O)C2(F)F)c(=O)n1 [GEMCITABINE]	Not Active	Not Active	Not Active	Not Active	Not Active	Not Active	Not Active	Not Active	Not Active	Not Active	Not Active	Not Active						
COc1cc(N)c(Cl)cc1C(=O)NC1CCN(CCCOc2ccc(F)cc2)CC1OC (stereo unspecified) [CISAPRIDE]		Not Active			Not Active	Not Active	Not Active	Not Active	Not Active	Not Active	Not Active	Not Active	0.53	0.515			2.83	1.62
CCC1(CCC(C)C)C(=O)NC(=O)NC1=O [AMOBARBITAL]	Not Active	Not Active	Not Active	Not Active	Not Active	Not Active	Not Active	Not Active	Not Active	Not Active	Not Active	Not Active						
O=C(O)c1cccnc1Nc1cccc(C(F)(F)F)c1 [NIFLUMIC ACID]	Not Active	Not Active	Not Active	Not Active	Not Active	Not Active	Not Active	Not Active	Not Active	Not Active	Not Active	Not Active						
Cn1c(=O)c2[nH]cnc2n(C)c1=O.Cn1c(=O)c2[nH]cnc2n(C)c1=O.NCCN [AMINOPHYLLINE]	Not Active	Not Active	Not Active	Not Active	Not Active	Not Active	Not Active	Not Active	Not Active	Not Active	Not Active	Not Active						
GENTAMICIN	Not Active	Not Active	Not Active	Not Active	Not Active	Not Active	Not Active	Not Active	Not Active	Not Active	Not Active	Not Active			Not Active	Not Active		
CCCNCC(O)COc1ccccc1C(=O)CCc1ccccc1 (stereo unspecified) [PROPAFENONE]		Not Active			Not Active	Not Active	Not Active	Not Active	Not Active	Not Active	Not Active	Not Active	1.74	1.7			1.64	0.935
